Experiment: Tested for inhibition of [3H]PAF binding to rabbit Platelet activating factor receptor

Ki [nM]	SMILES
913	CC1=NC(C)=C(C(=O)OCCSc2ccccc2)C(C)C1C(=O)OC(C)C (stereo not given)
4410	COCCOC(=O)C1C(C)=NC(C)=C(C(=O)OCCSC)C1C (stereo not given)
1010	CCOC(=O)C1C(C)=NC(C)=C(C(=O)OCCSC)C1CC (stereo not given)
505	CCSCCOC(=O)C1=C(C)N=C(C)C(C(=O)OC)C1C (stereo not given)
2090	CC1=NC(C)=C(C(=O)OCCSc2ccccc2)C(C)C1C(=O)OCC1CCCO1 (stereo not given)
15	COC(=O)C1C(C)=NC(C)=C(C(=O)OCCSc2ccccc2)C1C (stereo not given)
69	CCOC(=O)C1C(C)=NC(C)=C(C(=O)OCCSc2ccccc2)C1C (stereo not given)
1000	CCOC(=O)C1C(C)=NC(C)=C(C(=O)OCCSCC)C1C (stereo not given)
603	COC(=O)C1C(C)=NC(C)=C(C(=O)OCCSC)C1C (stereo not given)
1040	CCOC(=O)C1C(C)=NC(C)=C(C(=O)OCCSC)C1C (stereo not given)

Reference: BindingDB's records for doi:10.1021/jm00174a017 (Alter, 1991)
